US12552756B2, “Deuterated aminothiazole compounds as antiviral compounds” (priority 2020, dated 2026)
Several values for one entry are separate records, joined by “and”; a condition that tells them apart may be missing. Equal values may be shown once. Read-outs that look alike come from different tables or passages of the source. One block for each compound: values may come before it.

Assays:
[1] = Brain exposure and brain-to-plasma ratio in mouse; type: in vivo; conditions: C57BI/6N mouse; for behaviour and clinical signs after dosing: oral cassette dosing 10 mg/kg each; for Kp at 4 h: brain/plasma; for Kp at 4 h / concentration at 4 h: oral cassette 10 mg/kg
Description: The brain and plasma exposure for Example 6 as well as for Example 4/2 and for its non-deuterated matched-pair (Comparative Example C4/2/Example 7(—) from WO2017/174640) was asessed in 3 mice (strain C57BI/6N, weight 21-26 g) after oral cassette dosing with a dose of 10 mg/kg each after 4 h. The compounds were formulated in 5% DMSO and 95% aq. HPMC (0.5%). […] Plasma from the retrobulbar venous plexus was analyzed by LC-MS.

HSV-2 = assay: In-vitro activity, HSV-2 infected Vero; type: cell-based; conditions: Human alphaherpesvirus 2; Vero cells
Description: (§1) The in-vitro activity for (HSV-1 infected Vero), (HSV-2 infected Vero) and (HSV-1 (ACV resistant) infected vero) was tested as outlined in WO2017/174640 and WO2019/068817. For comparison, the non-deuterated matched-pair to Example 1 of the present application has been tested, which is hereinafter designated as Comparative Example C7 and which corresponds to Example 7 of WO2017/174640.

HSV-1 = assay: In-vitro activity, HSV-1 infected Vero; type: cell-based; conditions: Human alphaherpesvirus 1; Vero cells
Description: as §1

[2] = Pharmacokinetics in mouse; type: in vivo; conditions: male C57BI/6N mouse; for % AUCextra / t1/2z / tz / AUC(0-inf) / AUC(0-t) / C0 / clearance / concentration at 24 h / Vd / Cmax / Tmax: cassette; for AUC(0-inf) / AUC(0-t) / C0 / clearance / concentration at 24 h / Vd / bioavailability / Cmax / Tmax: plasma; for concentration at 24 h: read-out: Cz; for Vd: read-out: Vz; for bioavailability: po 10 mg/kg vs iv 2 mg/kg
Description: Plasma from the retrobulbar venous plexus was analyzed by LC-MS. The obtained data obtained is as follows (NC=not calculable): […]

HSV-1 (ACV resistant) = assay: In-vitro activity, HSV-1 (ACV resistant) infected vero; type: cell-based; conditions: Human alphaherpesvirus 1, Vero, read-out: IC50 (HSV-1 ACV resistant)
Description: as §1

[3] = Additional microsomal stability, human microsomes, hydroxy metabolite formation; type: in vitro ADME; conditions: human (mixed gender) microsomes, 60 min
Description: The formation of the hydroxy metabolites was quantified via peak area ratio towards the corresponding non-deuterated matched pair when incubating the samples in rat microsomes (SD rat, male) or human microsomes (mixed gender) for 60 min at Admescope. The peak signal (positive mode) was quantified with a Waters Acquity UPLC+Thermo Q-Exactive Focus Orbitrap MS on a Phenomenex Kinetex Biphenyl (2.1×50 mm, 1.7 μm particle size […]) column.

[4] = Microsomal stability, human liver microsomes, conversion to hydroxylated metabolite; type: in vitro ADME; conditions: 1st and 2nd replicate
Description: Example 1 and the non-deuterated matched pair (Comparative Example C7/Example 7 from WO2017/174640) were incubated using three different batches of human liver microsomes (HLM) for a period of 60 min. The conversion to the hydroxylated metabolite was monitored by LC-MS.

[5] = brain, read-out: mean brain conc. with SD
[6] = plasma, read-out: mean plasma conc. with SD

Structure (SMILES): [2H]C([2H])([2H])c1nc(N(C)C(=O)Cc2ccc(-c3cc(F)ccc3F)cc2)sc1[S@@](C)(=N)=O (single isomer, unassigned) [Example 4/2]
improvement of plasma and brain exposure compared to the non-deuterated matched-pair ([1]; oral 10 mg/kg, after 4 h): over 50%
behaviour and clinical signs after dosing [1]: no clinical signs observed
Kp at 4 h [1]: 1.57
concentration at 4 h [1, 5]: 8610 ± 2180 ng/mL
concentration at 4 h [1, 6]: 5470 ± 1320 ng/mL
IC50 (HSV-2): 10 to 90 nM
IC50 (HSV-1): 5 to 75 nM
% AUCextra ([2]; iv 2 mg/kg): 24.9%
t1/2z ([2]; iv 2 mg/kg): 11.3 h
tz ([2]; iv 2 mg/kg): 24 h
tz ([2]; po 10 mg/kg): 24 h
AUC(0-inf) ([2]; iv 2 mg/kg): 10600 ng·h/mL
AUC(0-t) ([2]; iv 2 mg/kg): 8000 ng·h/mL
C0 ([2]; iv 2 mg/kg): 16.2 ng/mL
clearance ([2]; iv 2 mg/kg): 3.13 mL/min/kg
concentration at 24 h ([2]; iv 2 mg/kg): 162 ng/mL
Vd ([2]; iv 2 mg/kg): 3.07 L/kg
bioavailability [2]: 201%
AUC(0-t) ([2]; po 10 mg/kg): 80200 ng·h/mL
Cmax ([2]; po 10 mg/kg): 4610 ng/mL
Tmax ([2]; po 10 mg/kg): 4 h
concentration at 24 h ([2]; po 10 mg/kg): 2730 ng/mL
IC50 (HSV-1 (ACV resistant)): 5 to 75 nM

Structure (SMILES): [2H]C([2H])([2H])c1nc(N(C)C(=O)Cc2ccc(-c3cc(F)ccc3F)cc2)sc1S(N)(=O)=O [Example 6, 2-(2′,5′-Difluoro-[1,1′-biphenyl]-4-yl)-N-methyl-N-(4-(methyl-d3)-5-sulfamoylthiazol-2-yl)acetamide]
behaviour and clinical signs after dosing [1]: no clinical signs observed
Kp at 4 h [1]: 0.78
concentration at 4 h [1, 5]: 3220 ± 1910 ng/mL
concentration at 4 h [1, 6]: 4130 ± 1760 ng/mL
IC50 (HSV-2): 2 to 60 nM
IC50 (HSV-1): 2 to 60 nM
hydroxy metabolite peak area ratio [3]: BLQ
IC50 (HSV-1 (ACV resistant)): 2 to 60 nM

behaviour and clinical signs after dosing [1]: no clinical signs observed
Kp at 4 h [1]: 1.57
concentration at 4 h [1, 5]: 5610 ± 1450 ng/mL
concentration at 4 h [1, 6]: 3580 ± 726 ng/mL
% AUCextra ([2]; iv 2 mg/kg): 12.4%
t1/2z ([2]; iv 2 mg/kg): 7.7 h
tz ([2]; iv 2 mg/kg): 24 h
tz ([2]; po 10 mg/kg): 24 h
AUC(0-inf) ([2]; iv 2 mg/kg): 6390 ng·h/mL
AUC(0-t) ([2]; iv 2 mg/kg): 5600 ng·h/mL
C0 ([2]; iv 2 mg/kg): 10.4 ng/mL
clearance ([2]; iv 2 mg/kg): 5.22 mL/min/kg
concentration at 24 h ([2]; iv 2 mg/kg): 71.5 ng/mL
Vd ([2]; iv 2 mg/kg): 3.47 L/kg
bioavailability [2]: 167%
AUC(0-t) ([2]; po 10 mg/kg): 46600 ng·h/mL
Cmax ([2]; po 10 mg/kg): 2960 ng/mL
Tmax ([2]; po 10 mg/kg): 4 h
concentration at 24 h ([2]; po 10 mg/kg): 1260 ng/mL
Structure (SMILES): Cc1nc(N(C)C(=O)Cc2ccc(-c3cc(F)ccc3F)cc2)sc1[S@@](C)(=N)=O [Comparative Example C4/2, reference compound]

Structure (SMILES): [2H]C([2H])([2H])c1nc(N(C)C(=O)Cc2ccc(-c3cc(F)ccc3F)cc2)sc1[S@](C)(=N)=O (single isomer, unassigned) [Example 4/1]
IC50 (HSV-2): 50 to 250 nM
IC50 (HSV-1): 50 to 150 nM
IC50 (HSV-1 (ACV resistant)): 50 to 150 nM

Structure (SMILES): [2H]C([2H])([2H])Oc1cccc(-c2ccc(CC(=O)N(C)c3nc(C)c(S(N)(=O)=O)s3)cc2)c1 [Example 5/1]
IC50 (HSV-2): 5 to 75 nM
IC50 (HSV-1): 10 to 100 nM
IC50 (HSV-1 (ACV resistant)): 10 to 100 nM

Structure (SMILES): [2H]C([2H])([2H])Oc1ccccc1-c1ccc(CC(=O)N(C)c2nc(C)c(S(N)(=O)=O)s2)cc1 [5/2]
IC50 (HSV-2): 30 to 150 nM
IC50 (HSV-1): 10 to 100 nM
IC50 (HSV-1 (ACV resistant)): 10 to 100 nM

Structure (SMILES): [2H]C([2H])([2H])c1nc(N(C)C(=O)Cc2ccc(-c3cccc(F)c3)cc2F)sc1S(N)(=O)=O [Example 6/1]
IC50 (HSV-2): 4 to 75 nM
IC50 (HSV-1): 2 to 60 nM
IC50 (HSV-1 (ACV resistant)): 2 to 60 nM

Structure (SMILES): [2H]C([2H])([2H])c1nc(N(C)C(=O)Cc2ccc(-c3cc(F)ccc3F)cc2)sc1S(C)(=N)=O (racemic) [Example 1, 2-(2′,5′-Difluoro-[1,1′-biphenyl]-4-yl)-N-methyl-N-(4-(methyl-d3)-5-(S-methyl-sulfonimidoyl)thiazol-2-yl)acetamide]
IC50 (HSV-2): 25 to 125 nM
IC50 (HSV-1): 25 to 125 nM
IC50 (HSV-1 (ACV resistant)): 25 to 125 nM
Parent [nM] 60 min ([4]; HLM batch 38292, 60 min): 928 nM and 1085 nM
Parent [nM] 60 min ([4]; HLM batch 5061002, 60 min): 1083 nM and 1058 nM
Parent [nM] 60 min ([4]; HLM batch 6029002, 60 min): 1231 nM and 1159 nM

Structure (SMILES): [2H]C([2H])([2H])c1nc(N(C)C(=O)Cc2ccc(-c3cc(F)ccc3F)cc2F)sc1S(N)(=O)=O [6/2]
IC50 (HSV-2): 3 to 75 nM
IC50 (HSV-1): 2 to 60 nM
IC50 (HSV-1 (ACV resistant)): 2 to 60 nM

Structure (SMILES): Cc1nc(N(C)C(=O)Cc2ccc(-c3cc(F)ccc3F)cc2)sc1S(C)(=N)=O (racemic) [Comparative Example C7, reference compound]
IC50 (HSV-2): 25 to 100 nM
IC50 (HSV-1): 25 to 100 nM
IC50 (HSV-1 (ACV resistant)): 25 to 100 nM
Parent [nM] 60 min ([4]; HLM batch 38292, 60 min, listed as Comp. Example C7): 1053 nM and 1255 nM
Parent [nM] 60 min ([4]; HLM batch 5061002, 60 min, listed as Comp. Example C7): 1122 nM and 910 nM
Parent [nM] 60 min ([4]; HLM batch 6029002, 60 min, listed as Comp. Example C7): 937 nM and 973 nM

Structure (SMILES): [2H]c1c([2H])c([2H])c(-c2ccc(CC(=O)N(C)c3nc(C)c(S(N)(=O)=O)s3)cc2)c([2H])c1[2H] [Example 5, 2-([1,1′-Biphenyl]-4-yl-2′,3′,4′,5′,6′-d5)-N-methyl-N-(4-methyl-5-sulfamoyl-thiazol-2-yl)acetamide]
IC50 (HSV-2): 25 to 125 nM
IC50 (HSV-1): 1 to 50 nM
IC50 (HSV-1 (ACV resistant)): 1 to 50 nM
